Measurements reported in ChEMBL document CHEMBL1142481, “Novel 5-HT(1A/1B/1D) receptors antagonists with potent 5-HT reuptake inhibitory activity” (Bioorg Med Chem Lett, 2008).

How the values were obtained:
[1] = target: T1, 5-hydroxytryptamine receptor 1A (Homo sapiens, UniProt P08908); test: Displacement of [3H]5HT from human cloned 5HT1A receptor expressed in CHO cells; type: cell-based
T1 sequence (P08908 whole entry): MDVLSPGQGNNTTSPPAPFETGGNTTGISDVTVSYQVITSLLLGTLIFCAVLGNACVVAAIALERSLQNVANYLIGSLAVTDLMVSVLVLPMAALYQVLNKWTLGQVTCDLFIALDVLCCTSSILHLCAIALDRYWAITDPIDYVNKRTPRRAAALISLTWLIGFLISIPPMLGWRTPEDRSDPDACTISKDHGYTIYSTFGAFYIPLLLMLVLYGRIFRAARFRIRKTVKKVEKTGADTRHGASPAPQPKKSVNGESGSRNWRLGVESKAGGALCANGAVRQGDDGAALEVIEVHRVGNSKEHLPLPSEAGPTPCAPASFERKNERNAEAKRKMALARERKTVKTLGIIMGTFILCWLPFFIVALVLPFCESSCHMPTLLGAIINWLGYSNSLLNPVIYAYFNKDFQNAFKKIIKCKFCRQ

[2] = target: T2, 5-hydroxytryptamine receptor 1D (Homo sapiens, UniProt P28221); test: Displacement of [3H]5HT from human cloned 5HT1D receptor expressed in CHO cells; type: cell-based
T2 sequence (P28221 whole entry): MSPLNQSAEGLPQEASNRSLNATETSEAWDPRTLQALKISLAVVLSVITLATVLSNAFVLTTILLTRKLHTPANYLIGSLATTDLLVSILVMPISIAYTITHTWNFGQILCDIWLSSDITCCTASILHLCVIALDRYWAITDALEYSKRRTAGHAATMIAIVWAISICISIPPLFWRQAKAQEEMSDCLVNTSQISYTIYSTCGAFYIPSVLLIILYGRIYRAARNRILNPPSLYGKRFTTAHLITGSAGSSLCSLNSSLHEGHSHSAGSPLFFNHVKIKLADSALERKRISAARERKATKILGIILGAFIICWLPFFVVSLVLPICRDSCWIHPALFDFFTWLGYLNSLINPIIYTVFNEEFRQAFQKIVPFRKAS

[3] = target: T3, 5-hydroxytryptamine receptor 1B (Homo sapiens, UniProt P28222); test: Displacement of [3H]5HT from human cloned 5HT1B receptor expressed in CHO cells; type: cell-based
T3 sequence (P28222 whole entry): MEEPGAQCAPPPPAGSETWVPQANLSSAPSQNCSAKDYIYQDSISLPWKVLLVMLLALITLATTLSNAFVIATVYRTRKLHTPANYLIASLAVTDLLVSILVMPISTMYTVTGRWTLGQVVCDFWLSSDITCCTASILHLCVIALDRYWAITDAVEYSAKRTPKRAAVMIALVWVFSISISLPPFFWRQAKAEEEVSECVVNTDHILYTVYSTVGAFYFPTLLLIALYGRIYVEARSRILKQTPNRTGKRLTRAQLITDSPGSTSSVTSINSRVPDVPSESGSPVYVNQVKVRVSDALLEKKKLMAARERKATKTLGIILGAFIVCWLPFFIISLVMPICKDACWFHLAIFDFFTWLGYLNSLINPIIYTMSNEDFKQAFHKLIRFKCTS

[4] = target: T2, 5-hydroxytryptamine receptor 1D; test: Intrinsic activity at human cloned 5HT1D receptor expressed in CHO cells; type: cell-based
[5] = target: T3, 5-hydroxytryptamine receptor 1B; test: Intrinsic activity at human cloned 5HT1B receptor expressed in CHO cells; type: cell-based
[6] = target: T4, 5-hydroxytryptamine receptor 1A (Homo sapiens) (UniProt P08908); test: Intrinsic activity at human cloned 5HT1A receptor expressed in CHO cells; type: cell-based
T4 sequence (whole entry): T1 sequence (P08908 whole entry)

[7] = target: Sodium-dependent serotonin transporter (Rattus norvegicus, UniProt P31652); test: Inhibition of [3H]5HT reuptake at SERT in rat cortical synaptosomes; type: subcellular, Brain
Chain of Sodium-dependent serotonin transporter (P31652 whole entry): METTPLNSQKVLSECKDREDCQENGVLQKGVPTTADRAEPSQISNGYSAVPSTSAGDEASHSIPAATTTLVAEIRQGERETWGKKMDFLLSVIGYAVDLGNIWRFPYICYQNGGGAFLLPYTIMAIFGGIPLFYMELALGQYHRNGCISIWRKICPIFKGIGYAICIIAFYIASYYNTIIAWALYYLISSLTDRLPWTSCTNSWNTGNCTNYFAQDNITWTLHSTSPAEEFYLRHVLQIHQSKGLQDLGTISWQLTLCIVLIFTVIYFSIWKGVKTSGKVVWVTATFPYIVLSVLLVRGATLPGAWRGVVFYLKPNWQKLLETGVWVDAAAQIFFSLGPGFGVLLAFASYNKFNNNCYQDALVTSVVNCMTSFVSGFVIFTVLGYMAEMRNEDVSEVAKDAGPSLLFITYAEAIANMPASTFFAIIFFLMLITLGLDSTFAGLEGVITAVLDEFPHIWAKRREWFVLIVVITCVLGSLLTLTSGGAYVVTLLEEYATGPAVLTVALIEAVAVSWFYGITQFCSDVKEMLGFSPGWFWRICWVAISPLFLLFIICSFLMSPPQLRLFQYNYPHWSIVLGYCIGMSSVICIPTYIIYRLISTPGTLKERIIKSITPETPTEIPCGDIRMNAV

[8] = Oral bioavailability in rat at 3 mg/kg; type: ADME, organism-based; settings: in vivo
[9] = Cmax in rat at 3 mg/kg, po; type: ADME, organism-based; design: dose 3 mg/kg, route oral; settings: in vivo
[10] = Clearance in rat at 3 mg/kg, po; type: ADME, organism-based; design: dose 3 mg/kg, route oral; settings: in vivo

Compound | Ki [1] | Ki [2] | Ki [3] | Ki [7] | also measured
Cc1ccc2c(OCCCN3CC(COc4ccc5c(c4)NC(=O)CO5)C3)cccc2n1 | 0.0794 µM | 0.158 µM | 0.316 µM |  | 
Cc1ccc2c(OCC(C)N3CCC(Cc4ccc5c(c4)NC(=O)CO5)CC3)cccc2n1 (single isomer, unassigned; enantiomer II) | 0.1 µM | 0.501 µM | 0.1 µM |  | 
Cc1ccc2c(OCCN3CCC(Cc4ccc5c(c4)NC(=O)CO5)CC3)cccc2n1 |  |  |  |  | Intrinsic activity [4]: 0.5; Intrinsic activity [5]: 0.5; Intrinsic activity [6]: 0.1
Cc1ccc2c(N3CCN(Cc4ccc5c(c4)NC(=O)CO5)CC3)cccc2n1 | 0.631 µM | 0.126 µM | > 10 µM | 0.794 µM | 
Cc1ccc2c(OCC3CCN(Cc4ccc5c(c4)NC(=O)CO5)CC3)cccc2n1 | > 1.58 µM |  |  |  | 
Cc1ccc2c(N3CCN(CCc4ccc5c(c4)NC(=O)CO5)CC3)cccc2n1 |  |  |  |  | bioavailability [8]: 72%; Cmax [9]: 360 ng/mL; Intrinsic activity [5]: 0.1; Intrinsic activity [6]: 0.2; CL/F [10]: 7 mL/min/kg
Cc1ccc2c(OC(C)CN3CCC(Cc4ccc5c(c4)NC(=O)CO5)CC3)cccc2n1 (racemic) | 0.398 µM | 0.0794 µM | 0.2 µM | 0.251 µM | 
Cc1ccc2c(OCCN3CC(COc4ccc5c(c4)NC(=O)CO5)C3)cccc2n1 | 0.0501 µM | 0.00794 µM | 0.0501 µM | 0.0631 µM | Intrinsic activity [4]: 0.5; Intrinsic activity [5]: 0.5; Intrinsic activity [6]: 0.3
Cc1ccc2c(N3CCN(CCCc4ccc5c(c4)NC(=O)CO5)CC3)cccc2n1 |  |  |  |  | Intrinsic activity [6]: 0
Cc1ccc2c(OC3CCN(CC(=O)c4ccc5c(c4)NC(=O)CO5)CC3)cccc2n1 | > 10 µM | 2 µM | > 5.01 µM |  | 
Cc1ccc2c(OC3CCN(Cc4ccc5c(c4)NC(=O)CO5)CC3)cccc2n1 | > 10 µM | 1.26 µM | > 2.51 µM | 0.2 µM | 
Cc1ccc2c(OCC3CCN(CC(=O)c4ccc5c(c4)NC(=O)CO5)CC3)cccc2n1 | 0.501 µM | 0.251 µM | 0.631 µM | 0.794 µM | 
Cc1ccc2c(OCCCN3CC(Oc4ccc5c(c4)NC(=O)CO5)C3)cccc2n1 | 0.158 µM |  |  |  | 
Cc1ccc2c(OCC(C)N3CCC(Cc4ccc5c(c4)NC(=O)CO5)CC3)cccc2n1 (single isomer, unassigned; enantiomer I) | 0.0501 µM | 0.251 µM | 0.0398 µM |  | 
Cc1ccc2c(OC3CCN(CCc4ccc5c(c4)NC(=O)CO5)CC3)cccc2n1 | 0.316 µM | 0.00631 µM | 0.0251 µM | 0.1 µM | 
